pEC50: −log10 of the molar value.
These molecules were tested against T1, human GPR119 (Homo sapiens, UniProt Q8TDV5) (assay: Cyclic AMP (HTRF cAMP) assay for human GPR119, Method A). Details: HEK293S, 0.75 h; Method A; HEK 293s cells over-expressing human GPR119; percent effect at top concentration 30 μM relative to maximum (50 μM Oleoylethanolamide) and minimum (1% DMSO) controls.
T1 construct: expressed in transfected cells; host or cells: HEK 293s
T1 sequence (Q8TDV5 1-335): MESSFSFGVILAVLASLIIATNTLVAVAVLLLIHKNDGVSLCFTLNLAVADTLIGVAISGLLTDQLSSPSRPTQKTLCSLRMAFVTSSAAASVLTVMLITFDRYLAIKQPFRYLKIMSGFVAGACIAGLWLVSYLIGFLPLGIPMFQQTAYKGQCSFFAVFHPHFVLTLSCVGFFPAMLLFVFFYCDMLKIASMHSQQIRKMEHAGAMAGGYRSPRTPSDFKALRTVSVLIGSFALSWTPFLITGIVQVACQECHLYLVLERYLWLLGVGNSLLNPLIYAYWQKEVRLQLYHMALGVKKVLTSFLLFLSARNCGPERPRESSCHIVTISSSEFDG
Assay type: cell-based

Row | Structure (SMILES) | activation at 30 µM [%]
1 | CS(=O)(=O)c1ccc(COc2cnc(N3CCN(c4noc(C(F)(F)F)n4)CC3)nc2)cc1 [Example 88, 3-(4-(5-(4-(methylsulfonyl)bcnzyloxy)pyrimidin-2-yl)pipcrazin-1-yl)-5-(trifluoromcthyl)-1,2,4-oxadiazole] | 79
2 | Cc1cc(COc2cnc(N3CCN(C(=O)OC(C)(C)C)CC3)nc2)ccc1S(C)(=O)=O [Example 37, tert-butyl 4-(5-(3-methyl-4-(methylsulf-onyl)benzyl-oxy)pyrimi-din-2-yl)piperazine-1-carboxylate] | 52
3 | CNS(=O)(=O)c1ccc(COc2cnc(N3CCN(C(=O)OC(C)(C)C)CC3)nc2)cc1 [Example 16, tert-butyl 4-(5-(4-(N-methyl-sulfamoyl)benzyloxy)pyrimidin-2-yl)piperazine-1-carboxylate] | 57
4 | Cc1cc(COc2cnc(N3CCN(C(=O)OC(C)(C)C)CC3)nc2)ccc1NC(=O)C(C)(C)C [Example 13, tert-butyl 4-(5-(3-methyl-4-pivalamido-benzyloxy)pyrimidin-2-yl)piperazine-1-carboxylate] | 41
5 | CC(C)(C)OC(=O)N1CCN(c2ncc(OCc3ccc(C(=O)N4CCNCC4)cc3)cn2)CC1 [Example 50, tert-butyl 4-(5-(4-(piperazine-1-carbonyl)benz-yloxy)pyrimi-din-2-yl)piperazine-1-carboxylate] | 23
6 | CC(OC(=O)N1CCN(c2ncc(OCc3ccc(S(C)(=O)=O)cc3)cn2)[C@H](C)C1)C(F)(F)F (stereo partly drawn) [Example 67, (3R)-1,1,1-trifluoropropan-2-yl 3-methyl-4-(5-(4-(methylsulfonyl)benzyloxy)pyrim-idin-2-yl)piperazine-1-carboxylate] | 60
7 | Cc1cc(COc2cnc(N3CCN(C(=O)OC(C)(C)C)CC3)nc2)ccc1C(=O)NC(C)(C)C [Example 55, tert-butyl 4-(5-(4-(tert-butylcarbamoyl)-3-methylbenzyl-oxy)pyrimidin-2-yl)piperazine-1-carboxylate] | 65
8 | CC(C)(C)OC(=O)N1CCN(c2ncc(OCc3ccc(C(=O)NCCO)cc3)cn2)CC1 [Example 44, tert-butyl 4-(5-(4-(2-hydroxyethyl-carbamoyl)benz-yloxy)pyrimi-din-2-yl)piperazine-1-carboxylate] | 61
9 | CS(=O)(=O)c1ccc(COc2cnc(N3CCN(C(=O)OC4CCC4)CC3)nc2)cc1 [Example 63, Cyclobutyl 4-(5-(4-(methylsulfonyl)benzyloxy)pyrimidin-2-yl)piperazine-1-carboxylate] | 52
10 | CC(C)(C)OC(=O)N1CCN(c2ncc(OCc3ccc([S+]([O-])C(F)(F)F)cc3)cn2)CC1 (centres unmarked) [Example 91, Tert-butyl 4-(5-(4-(trifluoromethylsulfinyl)benzyloxy)pyrimidin-2-yl)piperazine-1-carboxylate] | 32
11 | C[S+]([O-])c1ccc(COc2cnc(N3CCN(C(=O)OC(C)(C)C)CC3)nc2)cc1 (centres unmarked) [Example 93, Tert-butyl 4-(5-(4-(methylsulfinyl)benzyloxy)pyrimidin-2-yl)piperazine-1-carboxylate] | 82
12 | CN(CCO)C(=O)c1ccc(COc2cnc(N3CCN(C(=O)OC(C)(C)C)CC3)nc2)cc1 [Example 43, Tert-butyl 4-(5-(4-((2-hydroxyethyl)(methyl)carbamoyl)benzyloxy)pyrimidin-2-yl)piperazine-1-carboxylate] | 48
13 | CC(C)(C)OC(=O)N1CCN(c2ncc(OCc3ccc(S(C)(=O)=O)c(F)c3)cn2)CC1 [Example 32, tert-butyl 4-(5-(3-fluoro-4-(methylsulfonyl)benzyloxy)pyrimidin-2-yl)piperazine-1-carboxylate] | 62
14 | CC(C)(C)OC(=O)N1CCN(c2ncc(OCc3ccc(OS(C)(=O)=O)cc3)cn2)CC1 [Example 17, tert-butyl 4-(5-(4-(methyl-sulfonyloxy)benzyloxy)pyrimidin-2-yl)piperazine-1-carboxylate] | 65
15 | C[C@@H]1CN(C(=O)OC2(C(F)(F)F)COC2)CCN1c1ncc(OCc2ccc(S(C)(=O)=O)cc2)cn1 [Example 110, (R)-3-(trifluoromethyl) oxetan-3-yl 3-mcthyl-4-(5-(4-(mcthylsulfonyl)benzyloxy)pyrimidin-2-yl)piperazine-1-carboxylate] | 55
16 | CC1(OC(=O)N2CCN(c3ncc(OCc4ccc(S(C)(=O)=O)cc4)cn3)CC2)CC1 [Example 60, 1-Methylcyclopropyl 4-(5-(4-(methylsulfonyl)benzyloxy)pyrimidin-2-yl)piperazine-1-carboxylate] | 90
17 | CC(C)OC(=O)N1CCN(c2ncc(OCc3ccc(S(C)(=O)=O)cc3)cn2)CC1 [Example 56, Isopropyl 4-(5-(4-(methylsulfonyl)benzyloxy)pyrimidin-2-yl)piperazine-1-carboxylate] | 63
18 | Cc1cc(S(C)(=O)=O)ccc1COc1cnc(N2CCN(C(=O)OC(C)(C)C)CC2)nc1 [Example 33, tert-butyl 4-(5-(2-methyl-4-(methylsulfonyl)benzyloxy)pyrimidin-2-yl)piperazine-1-carboxylate] | 82
19 | CS(=O)(=O)c1ccc(COc2cnc(N3CCN(C(=O)OC4COC4)CC3)nc2)cc1 [Example 75, Oxetan-3-yl 4-(5-(4-(methylsulfonyl)benzyloxy)pyrimidin-2-yl)piperazine-1-carboxylate] | 31
20 | CN(C)CCN(C)C(=O)c1ccc(COc2cnc(N3CCN(C(=O)OC(C)(C)C)CC3)nc2)cc1 [Example 49, tert-butyl 4-(5-(4-((2-(dimethylamino)ethyl)(methyl)carbamoyl)benzyloxy)pyrim-idin-2-yl)piperazine-1-carboxylate] | 27
21 | C[C@@H]1CN(C(=O)O[C@H](C)C(F)(F)F)CCN1c1ncc(OCc2ccncc2C#N)cn1 [Example 103, (R)—((R)-1,1,1-trifluoropropan-2-yl) 4-(5-((3-cyanopyridin-4-yl)methoxy)pyrimidin-2-yl)-3-methylpiperazine-1-carboxylate] | 244
22 | Cc1cc(COc2cnc(N3CCN(C(=O)OC(C)(C)C)CC3)nc2)ccc1NC(=O)C(C)C [Example 12, tert-butyl 4-(5-(4-isobutyr-amido-3-methyl-benzyloxy)pyrimidin-2-yl)piperazine-1-carboxylate] | 54
23 | CC(=O)Nc1ccc(COc2cnc(N3CCN(C(=O)OC(C)(C)C)CC3)nc2)cn1 [Example 6, tert-butyl 4-(5-((6-acetamido-pyridin-3-yl)methoxy)pyrimidin-2-yl)piperazine-1-carboxylate] | 59
24 | C[C@@H]1CN(C(=O)OC2CCC2)CCN1c1ncc(OCc2ccc(S(C)(=O)=O)cc2)cn1 [Example 64, (R)-cyclobutyl 3-methyl-4-(5-(4-(methylsulf-onyl)benzyl-oxy)pyrimi-din-2-yl)piperazine-1-carboxylate] | 57
25 | C[C@@H]1CN(C(=O)OC2(C(F)(F)F)COC2)CCN1c1ncc(OCc2ccncc2C#N)cn1 [Example 111, (R)-3-(trifluoromcthyl) oxetan-3-yl 4-(5-((3-cyanopyridin-4-yl)mcthoxy)pyrimidin-2-yl)-3-mcthylpipcrazine-1-carboxylate] | 171
26 | CNC(=O)c1ccc(COc2cnc(N3CCN(C(=O)OC(C)(C)C)CC3)nc2)cc1 [Example 45, tert-butyl 4-(5-(4-(methylcarba-moyl)benzyloxy)pyrimidin-2-yl)piperazine-1-carboxylate] | 142
27 | CC(C)(C)OC(=O)N1CCN(c2ncc(OCc3ccc(S(C)(=O)=O)cc3)cn2)CC1 [Example 1, Tert-butyl 4-(5-(4-(methylsulfonyl)benzyloxy)pyrimidin-2-yl)piperazine-1-carboxylate] | 83
28 | CN1CCN(C(=O)c2ccc(COc3cnc(N4CCN(C(=O)OC(C)(C)C)CC4)nc3)cc2)CC1 [Example 51, tert-butyl 4-(5-(4-(4-methylpiper-azine-1-carbonyl)benz-yloxy)pyrimi-din-2-yl)piperazine-1-carboxylate] | 42

Same assay, conditions: Method A; HEK 293s cells over-expressing human GPR119; midpoint of dose response curve; selected examples

Row | Structure (SMILES) | pEC50
29 | Cc1cc(COc2cnc(N3CCN(C(=O)OC(C)(C)C)CC3)nc2)ccc1S(C)(=O)=O [Example 37, tert-butyl 4-(5-(3-methyl-4-(methylsulf-onyl)benzyl-oxy)pyrimi-din-2-yl)piperazine-1-carboxylate] | 7.70
30 | CC(OC(=O)N1CCN(c2ncc(OCc3ccc(S(C)(=O)=O)cc3)cn2)[C@H](C)C1)C(F)(F)F (stereo partly drawn) [Example 67, (3R)-1,1,1-trifluoropropan-2-yl 3-methyl-4-(5-(4-(methylsulfonyl)benzyloxy)pyrim-idin-2-yl)piperazine-1-carboxylate] | 7.41
31 | CC(C)(C)OC(=O)N1CCN(c2ncc(OCc3ccc(OS(C)(=O)=O)cc3)cn2)CC1 [Example 17, tert-butyl 4-(5-(4-(methyl-sulfonyloxy)benzyloxy)pyrimidin-2-yl)piperazine-1-carboxylate] | 7.70
32 | CN(C)CCN(C)C(=O)c1ccc(COc2cnc(N3CCN(C(=O)OC(C)(C)C)CC3)nc2)cc1 [Example 49, tert-butyl 4-(5-(4-((2-(dimethylamino)ethyl)(methyl)carbamoyl)benzyloxy)pyrim-idin-2-yl)piperazine-1-carboxylate] | 5.69

Same assay, conditions: human GPR119 cAMP assay; top concentration 30 μM

Row | Structure (SMILES) | significant activity at a top concentration of 30 μM
33 | CC(=O)Nc1ncc(COc2cnc(N3CCN(C(=O)OC(C)(C)C)CC3)nc2)cn1 [tert-butyl 4-[5-[(2-acetamidopyrimidin-5-yl)methoxy]pyrimidin-2-yl]piperazine-1-carboxylate] | did not show significant activity
34 | CN1CCC(N(C)C(=O)c2ccc(COc3cnc(N4CCN(C(=O)OC(C)(C)C)CC4)nc3)cc2)CC1 [tert-butyl 4-[5-[[4-[methyl-(1-methyl-4-piperidyl)carbamoyl]phenyl]methoxy]pyrimidin-2-yl]piperazine-1-carboxylate] | did not show significant activity
35 | Cc1cc(COc2cnc(N3CCN(C(=O)OC(C)(C)C)CC3)nc2)ccn1 [tert-butyl 4-[5-[(2-methyl-4-pyridyl)methoxy]pyrimidin-2-yl]piperazine-1-carboxylate] | did not show significant activity

Reference: patent US20110065706A1, “Therapeutic Agents 812” (AstraZeneca AB, priority 2009, published 2011)
